The test system of one assay is SD rats. The assay is described as follows: Acute single administration, urinary glucose changes in SD rats. On the set-up: Urine glucose concentration / The total amount of glucose excreted: unit not given here. As to conditions: 1 mg/kg oral, after 24 h. It is filed as in vivo, rat. How it is done:
(1) Acutely Administering Compound to Observed the Urinary Glucose Changes in SD Rats
Thirty-eight male normal SD rats were selected and randomly divided into 5 groups according to body weight and blood glucose, 6-8 in each group. […] After oral gavage, the rats were placed in rats metabolic cages, and urine was collected after 24 h, and the urine volume was recorded, the urine sugar concentration was determined, and urinary sugar content was calculated according to the following formula. Urine content=urinary sugar concentration×urine volume
Glucose levels in urine are measured by the glucose assay kit.
Data were expressed as mean±standard deviation (x±s), and Student's t test was used for statistical analysis of the data, p<0.05 was considered statistically significant.

A further assay concerns the target T1, hSGLT1 (Homo sapiens, UniProt P13866).
T1 sequence (P13866 1-664): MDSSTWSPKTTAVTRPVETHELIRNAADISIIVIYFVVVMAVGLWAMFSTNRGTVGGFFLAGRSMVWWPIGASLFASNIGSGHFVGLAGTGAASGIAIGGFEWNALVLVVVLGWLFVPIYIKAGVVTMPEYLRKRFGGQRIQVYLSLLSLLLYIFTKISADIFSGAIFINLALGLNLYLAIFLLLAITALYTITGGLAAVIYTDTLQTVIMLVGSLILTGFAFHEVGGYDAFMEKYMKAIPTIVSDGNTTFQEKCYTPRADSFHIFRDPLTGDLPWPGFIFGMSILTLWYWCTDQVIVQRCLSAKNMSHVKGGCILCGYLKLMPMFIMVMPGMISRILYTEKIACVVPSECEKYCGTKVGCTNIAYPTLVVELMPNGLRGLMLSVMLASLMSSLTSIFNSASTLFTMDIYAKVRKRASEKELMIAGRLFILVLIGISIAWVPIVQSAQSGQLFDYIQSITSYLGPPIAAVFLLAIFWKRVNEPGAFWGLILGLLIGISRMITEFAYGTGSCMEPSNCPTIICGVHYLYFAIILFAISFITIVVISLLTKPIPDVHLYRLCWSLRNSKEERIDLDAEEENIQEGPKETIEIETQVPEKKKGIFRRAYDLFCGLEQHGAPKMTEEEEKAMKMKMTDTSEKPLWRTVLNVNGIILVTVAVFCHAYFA
The assay is described as follows: In vitro SGLT1 inhibition (hSGLT1 IC50 test). Type of assay: cell-based. As to conditions: read-out: IC50 ± SD SGLT1.

For assay [1], the target named is T2, human sodium-glucose cotransporter 2 (SGLT2) (Homo sapiens, UniProt P31639).
T2 construct: expressed in transfected cells; host or cells: NIH3T3 (mouse fibroblast) cells expressing hSGLT2
T2 sequence (P31639 1-672): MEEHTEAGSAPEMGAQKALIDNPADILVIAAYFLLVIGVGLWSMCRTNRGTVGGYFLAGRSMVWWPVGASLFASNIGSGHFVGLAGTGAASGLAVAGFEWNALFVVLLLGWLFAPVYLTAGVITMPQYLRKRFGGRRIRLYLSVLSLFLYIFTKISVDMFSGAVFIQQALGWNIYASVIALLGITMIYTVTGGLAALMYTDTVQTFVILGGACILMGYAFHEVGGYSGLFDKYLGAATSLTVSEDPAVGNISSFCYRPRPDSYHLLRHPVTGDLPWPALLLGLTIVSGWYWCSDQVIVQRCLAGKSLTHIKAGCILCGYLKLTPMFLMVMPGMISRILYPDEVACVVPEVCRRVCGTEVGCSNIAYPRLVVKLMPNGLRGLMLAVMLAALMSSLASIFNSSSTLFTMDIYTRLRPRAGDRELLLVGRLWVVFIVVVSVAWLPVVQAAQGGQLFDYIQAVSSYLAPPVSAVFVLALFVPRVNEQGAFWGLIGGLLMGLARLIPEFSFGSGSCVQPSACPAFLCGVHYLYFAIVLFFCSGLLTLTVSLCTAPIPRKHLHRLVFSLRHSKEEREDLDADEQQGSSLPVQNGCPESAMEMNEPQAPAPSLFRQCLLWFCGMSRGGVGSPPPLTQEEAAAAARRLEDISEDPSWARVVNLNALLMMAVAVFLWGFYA
Description: In vitro SGLT2 inhibition, methyl-α-D-[U-14C]glucopyranoside uptake in NIH3T3-hSGLT2 cells. Type of assay: cell-based. As to conditions: for Selectivity: IC50 SGLT1/IC50 SGLT2; for inhibition at 0.01 µM: SGLT2, 10 nM, read-out: % Inhibition rate ± SD 10 nM; for inhibition at 0.1 µM: SGLT2, 100 nM, read-out: % Inhibition rate ± SD 100 nM; for IC50: read-out: IC50 ± SD SGLT2. The procedure, abridged: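 NIH3T3-hSGLT2 cells (40000/well, gelatin-coated, 2 mM sodium butyrate the next day) were preincubated 30 min in KRH-Na+, then given compound plus uptake buffer with methyl-α-D-[U-14C]glucopyranoside and ⅙ mM methyl-α-D-glucopyranoside. Uptake was read by scintillation counting, with KRH-acetylcholine as background.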

Experimental findings from US10550143B2, “C,O-spiro aryl glycoside compounds, preparation therefor and use thereof” (SHANGHAI INSTITUTE OF MATERIA MEDICA, CHINESE ACADEMY OF …, priority 2015, dated 2020) are described below.

On to `C[C@H]1O[C@]2(OCc3cc(Cl)c(Cc4ccc(-c5ccc(F)cc5)s4)cc32)[C@H](O)[C@@H](O)[C@@H]1O` [Example A31], for which, in the assay on SD rats (Table 3), the “The total amount of glucose excreted” value was found to be 9.41 ± 6.18 and the Urine glucose concentration is 1.50 ± 0.60. The compound further registered a Urine volume in the assay with SD rats (Table 3, in mL) of 33.13 ± 9.99. On hSGLT1, the IC50 amounted to 70100 ± 7900 nM. Moreover, in assay [1], the Selectivity turned out to be 19483, the inhibition at 0.01 µM was determined as 67.5 ± 5.7%, the inhibition at 0.1 µM turned out to be 91.5 ± 11.7% and the half-maximal inhibitory concentration (IC50) is 3.6 ± 0.7 nM.
With `C[C@H]1O[C@]2(OCc3cc(Cl)c(Cc4cc5ccccc5o4)cc32)[C@H](O)[C@@H](O)[C@@H]1O` [Example A36, (1S,3′R,4′S,5′S,6′R)-6′-methyl-6-(benzo[b]furan-2-methyl)-5-chloro-3′,4′,5′,6′-tetrahydro-3H-spiro[isobenzofuran-1,2′-pyran]-3′,4′,5′-triol], the IC50 on hSGLT1 was found to be 5400 ± 660 nM. In assay [1], the Selectivity is 166, the inhibition at 0.01 µM was 24.4 ± 8.8%, the inhibition at 0.1 µM worked out at 103 ± 3.7% and the IC50 was 32.4 ± 8.2 nM.
Turning to `CCc1ccc(Cc2cc3c(cc2F)CO[C@]32O[C@H](C)[C@@H](O)[C@H](O)[C@H]2O)s1` [Example A42, (1S,3′R,4′S,5′S,6′R)-6′-methyl-6-((5-ethylthienyl)-2-methyl)-5-fluoro-3′,4′,5′,6′-tetrahydro-3H-spiro[isobenzofuran-1,2′-pyran]-3′,4′,5′-triol], in the assay with SD rats (Table 4), the “The total amount of glucose excreted” value was 2.56 ± 2.37 and the Urine glucose concentration is 0.82 ± 0.73. In the assay with SD rats (Table 4, in mL), this compound displayed a Urine volume of 18.5 ± 3.51. Moreover, the IC50 on hSGLT1 was determined as 25900 ± 4290 nM. Moreover, in assay [1], the Selectivity stood at 988, the inhibition at 0.01 µM was 62.4 ± 11.8%, the inhibition at 0.1 µM is 104 ± 2.8% and the IC50 was 26.7 ± 2 nM.
Turning to `CCc1ccc(Cc2ccc3c(c2)[C@]2(OC3)O[C@H](C)[C@@H](O)[C@H](O)[C@H]2O)cc1` [Example A2, (1S,3′R,4′S,5′S,6′R)-6′-methyl-6-(4-ethylbenzyl)-3′,4′,5′,6′-tetrahydro-3H-spiro[isobenzofuran-1,2′-pyran]-3′,4′,5′-triol], the IC50 on hSGLT1 came to 22300 ± 4260 nM. In addition, in assay [1], the Selectivity amounted to 351, the inhibition at 0.01 µM worked out at 51.4 ± 2.1%, the inhibition at 0.1 µM amounted to 62.6 ± 2% and the IC50 is 63.5 ± 7.1 nM.
Turning to `CCc1ccc(Cc2cc3c(cc2C)CO[C@]32O[C@H](C)[C@@H](O)[C@H](O)[C@H]2O)s1` [Example A57, (1S,3′R,4′S,5′S,6′R)-5,6′-dimethyl-6-((5-ethylthienzyl)-2-methyl)-3′,4′,5′,6′-tetrahydro-3H-spiro[isobenzofuran-1,2′-pyran]-3′,4′,5′-triol], in the assay with SD rats (Table 4), the “The total amount of glucose excreted” value is reported as 786.39 ± 96.43 and the Urine glucose concentration was found to be 232.39 ± 50.5. In the assay with SD rats (Table 4, in mL), the Urine volume was 19.17 ± 2.71. Further, the IC50 at hSGLT1 is 1930 ± 160 nM. In assay [1], the inhibition at 0.01 µM came out at 31.1 ± 7.4%, the inhibition at 0.1 µM stood at 95.4 ± 2.8% and the IC50 came out at 8.4 ± 0.7 nM.

Broadly, the IC50 is the concentration needed to halve the response being measured. A word on the inhibition: it is the drop in the measured response relative to a control, in per cent.
